Test results taken from patent US20190256929A1, “PHARMACODYNAMIC BIOMARKERS FOR PERSONALIZED CANCER CARE USING EPIGENETIC MODIFYING AGENTS” (ORYZON GENOMICS, S.A., priority 2016, published 2019).

Tested on: panel of 14 cell lines (small cell lung cancer, non-small-cell lung cancer, acute myelogenic leukemia, acute lymphoblastic T-cell leukemia)
Assay: RNA-seq differential gene expression of PD markers in a panel of 14 cell lines
Assay type: cell-based, human
Conditions: 5 nM, 6 days
Procedure: A panel of 14 cell lines was treated with (trans)-N1-((1R,2S)-2-phenylcyclopropyl)cyclohexane-1,4-diamine (5 nM) or control vehicle for 6 days. The panel included eight small cell lung cancer cell lines (COLO 668, DMS 53, NCI-H146, NCI-H187, NCI-H446, NCI-H510A, NCI-H1417, SHP-77), two non-small-cell lung cancer cell lines (CAL-12T, NCI-H441), two acute myelogenic leukemia cell lines (KASUMI, OCI-AML2), and two acute lymphoblastic T-cell leukemia cell lines (JURKAT, SUP-T1).
Each cell line-treatment pair contained two to four biological replicates.
Expression data were obtained from whole transcriptomic RNA sequencing (RNA-seq) by Illumina, Inc. (San Diego, Calif.). The Illumina HiSeq machine generates raw base calls in reads of 50 or 100 bp length, which are subjected to several data analysis steps. The RNA-seq is conducted at 40 to 50 million reads per sample. This number provides relatively high sensitivity to detect low-expressed genes while allowing for cost-effective multiplexing of samples. RNA is prepared by standard kits and RNA libraries by polyA TruSeq Illumina kits. 100 ng of mRNA per cell line is used for each RNA-seq reaction. A number of quality control procedures are applied to the RNA-seq data for each sample. The Illumina HiSeq software reports the total number of clusters (DNA fragments) loaded in each lane, percent passing sequencing quality filters (which identifies errors due to overloading and sequencing chemistry), a phred quality score for each base of each sequence read, overall average phred scores for each sequencing cycle, and overall percent error (based on alignment to the reference genome). For each RNA-seq sample, the percentage of reads that contain mitochondrial and ribosomal RNA was calculated. The FASTQC package was used to provide additional QC metrics (base distribution, sequence duplication, overrepresented sequences, and enriched kmers) and a graphical summary. Raw reads were aligned against the human genome (hg19) using GSNAP and recommended options for RNASeq data. In addition to the genome sequence, GSNAP is given a database of human splice junctions and transcripts based on Ensembl v73. Resulting SAM files are then converted to sorted BAM files using Samtools. Gene expression values are calculated both as RPKM values following (Mortazavi A. et al. (2008) Nature Methods 5:621-628) and as read counts.
Differential gene expression analysis was performed using the DESeq2 package (Love M. I. et al. (2014) Genome Biology 15:550). Read counts from RNA-seq data were analyzed via a multi-factor generalized linear model of the negative binomial family, considering both treatment and the cell line type as factors that explain the changes in gene expression values.
The following filtering process was applied to identify genes that can serve as PD markers in surrogate tissues (skin or blood): • 1. […] The minimal expression level of the gene in normal blood and skin tissues was greater than one read per kilobase per million reads (RPKM, Mortazavi et al.), as obtained from the Genotype-Tissue Experssion (GTEx) project (The GTEx Consortium (2015) Science 348(6235):648-660). • 4. The minimal expression level of the gene in PBMC tissues was greater than 20 fragments per kilobase per million (FPKM; Trapnell C. et al. (2010) Nature Biotechnology 28:511-515) as obtained from the Ohmomo et al. study (Ohmomo H. et al. (2014) PLOS ONE 9(8):1-11). • 5. The gene is a target of LSD1, as determined by chromatin immunoprecipitation (ChIP) assay from the Adamo et al. study, or interacts with the LSD1 gene, as annotated by the BioGRID database (thebiogrid.org).
Additionally, we analyzed differential gene expression for a set of 35 genes which were previously identified as predictive biomarkers of response to LSD1 treatment.
Differentially expressed pathway analysis was done by the MetaBase R Library (Thompson Reuters).

[1] = RNA-seq, median across all cell lines, vs vehicle

`N[C@H]1CC[C@H](N[C@@H]2C[C@H]2c2ccccc2)CC1` [RG6016, (trans)-N1-((1R,2S)-2-phenylcyclopropyl)cyclohexane-1,4-diamine] was tested, and the “ASCL1 differential gene expression after treatment (in words)” value (RNA-seq) was “very significantly down-regulated”, the “GRP differential gene expression after treatment (in words)” value (RNA-seq) was “very significantly down-regulated” and the “CNN2 Median Log2 FC” value [1] was 0.35. For the same compound, the “DENND5A Median Log2 FC” value [1] was 0.32, the “NOTCH1 Median Log2 FC” value [1] was 0.49 and the “VIM Median Log2 FC” value [1] was 0.46. For the same compound, the “ZFP36L1 Median Log2 FC” value [1] was 0.27, the “ASCL1 Median Log2 FC” value (RNA-seq, vs vehicle) was −0.16 and the “GRP Median Log2 FC” value (RNA-seq, vs vehicle) was −0.26. For the same compound, the “development NOTCH signaling pathway, differentially expressed pathway analysis” value (MetaBase R Library, RNA-seq data) was “one of the most significantly differentially expressed pathway”.
